# Results: article PMC6390583 (BMC rheumatology, 2018)
# How the values were obtained:
# [1] = test system: CD3-/CD16+/CD56+ NK cells; experiment: Circulating NK cell analysis after 14 days dosing; assay type: in vivo, rat
# Procedure: Blood was collected and stained using BD MultiTest IMK kit (BD Biosciences, San Jose, CA) per manufacturer’s instructions. NK cell numbers were determined by using FlowJo analysis software (FlowJo, LLC, Ashland, OR) and by examining the CD3^−/CD16^+/CD56^+ population. The number of cells/μL was calculated by using the following equation: (# events in cell population/# of events in absolute bead count region) × (# beads per test/test volume), with the value beads per test indicated on the BD Trucount tube label.
# IL-7 driven pSTAT5 = experiment: Clinical ex vivo IL-7 stimulation of whole blood, pSTAT5; assay type: in vivo; settings: healthy volunteers, 5 mg tofacitinib, 1 h post dose
# Procedure: (§1) Recombinant human IL-6 (400 ng/ml), or IL-7 (400 ng/ml), (R&D Systems, Minneapolis, MN) was added to blood and incubated for 10 min at 37°C. Surface antibodies were added (CD14-APC, CD3-fluorescein isothiocyanate [FITC]; BD Biosciences, San Jose, CA) and incubated on ice for an additional 20 min. Samples were lysed (Lyse/Fix, BD Biosciences, San Jose, CA) and incubated for 10 min at 37°C. Samples were washed and stored at − 70°C. For intracellular staining, samples were thawed, washed, and resuspended in BD Perm buffer III (BD Biosciences, San Jose, CA) on ice for 30 min. Samples were washed and stained with pSTAT5-PE or pSTAT3-PE (BD Biosciences, San Jose, CA) for 60 min at room temperature and then analyzed immediately on a FACSCalibur. Geometric means were determined using FlowJo analysis software.
# IL-6 induced pSTAT3 = experiment: Clinical ex vivo IL-6 stimulation of whole blood, pSTAT3; assay type: in vivo, healthy volunteers; settings: healthy volunteers, 5 mg of tofacitinib, 1 h post dose
# Procedure: as §1
# reticulocyte deployment = experiment: Epo induced reticulocyte deployment assay; assay type: in vivo; settings: rat, Epo challenge, highest concentration tested
# Procedure: Naïve male Lewis rats were injected intravenously with either PBS or 1000 IU of epoetin α (Procrit®, Janssen Products, LP, Horsham, PA) for two consecutive days. Reticulocytes were measured on day 4 by flow cytometry using thiozole orange as a dye as previously described.
# [2] = test system: adjuvant induced arthritis; experiment: Rat adjuvant-induced arthritis (AIA) model; assay type: in vivo
compound,measurement,setting,value
"C[C@@H]1CCN(C(=O)CC#N)C[C@@H]1N(C)c1ncnc2[nH]ccc12 [tofacitinib, reference compound]",AUC60 for decrease of circulating NK cell numbers,[1]; naive rats dosed orally for 14 days,1230 ng·h/mL
same,Decrease in circulating NK cells at AUC60,"[1]; rat, at AUC60 of paw swelling",70%
same,Inhibition of IL-7 driven pSTAT5,IL-7 driven pSTAT5,~ 70%
same,Inhibition of IL-6 induced pSTAT3,IL-6 induced pSTAT3,~ 50%
same,Maximal inhibition of reticulocyte deployment,reticulocyte deployment,> 40%
same,Reduction in paw swelling at clinical AUC exposures,[2]; exposure associated with 10 mg BID of tofacitinib,~ 60%
same,"AUC60, AUC0-12 drug concentration necessary to achieve 60% inhibition of paw swelling",[2]; oral BID,1205 ng·h/mL
same,Effect on paw swelling,"[2]; oral, dosed from day 7",dose-responsive efficacy
